This note sets out measurements from ChEMBL document CHEMBL3217524, “The anti-tumor antibiotic PD 113,271 binds to microtubule-associated protein 1B (MAP1B)” (Medchemcomm, 2011).

SMILES strings stand for the structures. In brackets after ≈: the same amount, converted by molar mass. Activity calls are given as the source filed them. The calls are words filed in the database; no cut-off is given here.

For test [1], the system named is Ehrlich. The test is described as follows: Inhibition of topoisomerse-2 in mouse EAC cells. Format: cell-based.
Test [2] addresses Microtubule-associated protein 1B (Rattus norvegicus) (UniProt P15205). The test is described as follows: Binding affinity to MAP1B in rat PC12 cells after 2 hrs by Western blotting analysis. Particulars: PC-12. In kind it is cell-based.
Test [3] can be described thus: Cytotoxicity against human HCT8 cells. Format: functional, cell-based. Particulars: HCT-8.
Test [4] deals with T1, Microtubule-associated protein 1B (Homo sapiens, UniProt P46821). The test is described as follows: Binding affinity to MAP1B in human MCF7 cells assessed as protein complex at 1 uM after 24 hrs by DAPI staining-based immunofluorescence microscopy relative to control. Format: cell-based.
T1 sequence (P46821 2-2206 limits assumed): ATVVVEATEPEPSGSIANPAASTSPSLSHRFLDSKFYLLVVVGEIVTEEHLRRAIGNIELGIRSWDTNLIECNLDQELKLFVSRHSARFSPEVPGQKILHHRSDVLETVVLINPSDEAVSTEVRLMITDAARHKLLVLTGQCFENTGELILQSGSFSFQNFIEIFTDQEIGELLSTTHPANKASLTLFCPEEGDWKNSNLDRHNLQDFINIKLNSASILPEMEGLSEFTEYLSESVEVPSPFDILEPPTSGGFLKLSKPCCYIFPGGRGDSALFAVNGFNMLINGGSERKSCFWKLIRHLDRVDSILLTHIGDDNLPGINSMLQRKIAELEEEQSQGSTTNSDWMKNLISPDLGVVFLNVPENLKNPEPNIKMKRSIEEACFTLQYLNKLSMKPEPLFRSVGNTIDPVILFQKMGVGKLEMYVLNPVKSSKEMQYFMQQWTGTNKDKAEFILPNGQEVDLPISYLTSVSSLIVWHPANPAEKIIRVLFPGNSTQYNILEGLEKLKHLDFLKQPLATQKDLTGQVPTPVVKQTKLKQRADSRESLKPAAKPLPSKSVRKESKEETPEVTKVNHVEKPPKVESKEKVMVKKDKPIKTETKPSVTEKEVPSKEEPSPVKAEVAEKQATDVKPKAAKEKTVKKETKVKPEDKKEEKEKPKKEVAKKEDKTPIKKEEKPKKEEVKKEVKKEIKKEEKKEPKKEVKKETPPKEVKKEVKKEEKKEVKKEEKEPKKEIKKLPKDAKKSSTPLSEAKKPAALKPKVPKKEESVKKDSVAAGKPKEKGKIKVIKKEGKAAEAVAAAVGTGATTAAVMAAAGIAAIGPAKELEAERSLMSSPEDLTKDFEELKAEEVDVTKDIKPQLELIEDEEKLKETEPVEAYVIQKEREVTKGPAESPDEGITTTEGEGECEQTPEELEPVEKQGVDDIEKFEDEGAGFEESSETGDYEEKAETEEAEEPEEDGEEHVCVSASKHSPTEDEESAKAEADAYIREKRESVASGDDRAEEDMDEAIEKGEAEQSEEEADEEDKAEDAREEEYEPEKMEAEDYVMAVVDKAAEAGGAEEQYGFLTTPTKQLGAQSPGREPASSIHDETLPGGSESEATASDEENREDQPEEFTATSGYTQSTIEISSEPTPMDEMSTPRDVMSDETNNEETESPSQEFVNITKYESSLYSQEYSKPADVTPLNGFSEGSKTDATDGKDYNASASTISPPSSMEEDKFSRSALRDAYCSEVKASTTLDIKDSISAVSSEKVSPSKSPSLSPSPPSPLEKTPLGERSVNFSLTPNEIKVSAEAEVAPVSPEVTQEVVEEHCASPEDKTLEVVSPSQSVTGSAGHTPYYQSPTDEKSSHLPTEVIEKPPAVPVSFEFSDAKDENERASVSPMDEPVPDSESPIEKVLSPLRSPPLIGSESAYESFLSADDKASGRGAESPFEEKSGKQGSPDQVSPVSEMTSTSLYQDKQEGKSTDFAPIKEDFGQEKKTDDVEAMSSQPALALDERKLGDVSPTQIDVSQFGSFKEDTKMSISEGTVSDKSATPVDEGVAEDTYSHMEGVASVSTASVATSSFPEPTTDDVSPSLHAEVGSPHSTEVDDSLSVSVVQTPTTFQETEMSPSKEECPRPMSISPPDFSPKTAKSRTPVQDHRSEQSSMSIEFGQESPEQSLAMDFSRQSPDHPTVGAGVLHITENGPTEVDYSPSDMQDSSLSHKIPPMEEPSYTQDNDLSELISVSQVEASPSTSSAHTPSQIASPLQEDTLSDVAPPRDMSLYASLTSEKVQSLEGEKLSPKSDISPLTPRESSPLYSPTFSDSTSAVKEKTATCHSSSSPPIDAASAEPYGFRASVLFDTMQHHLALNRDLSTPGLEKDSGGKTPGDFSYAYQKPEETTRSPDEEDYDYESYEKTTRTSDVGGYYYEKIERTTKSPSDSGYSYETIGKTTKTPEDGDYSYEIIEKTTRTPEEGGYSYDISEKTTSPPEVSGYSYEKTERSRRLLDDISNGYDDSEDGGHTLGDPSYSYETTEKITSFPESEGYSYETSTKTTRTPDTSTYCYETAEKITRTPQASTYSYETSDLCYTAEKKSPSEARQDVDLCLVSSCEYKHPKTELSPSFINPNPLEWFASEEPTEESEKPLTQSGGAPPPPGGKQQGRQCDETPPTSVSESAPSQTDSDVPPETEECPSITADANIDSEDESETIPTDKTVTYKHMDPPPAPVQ
T1 sequence (P46821 2207-2468 limits assumed): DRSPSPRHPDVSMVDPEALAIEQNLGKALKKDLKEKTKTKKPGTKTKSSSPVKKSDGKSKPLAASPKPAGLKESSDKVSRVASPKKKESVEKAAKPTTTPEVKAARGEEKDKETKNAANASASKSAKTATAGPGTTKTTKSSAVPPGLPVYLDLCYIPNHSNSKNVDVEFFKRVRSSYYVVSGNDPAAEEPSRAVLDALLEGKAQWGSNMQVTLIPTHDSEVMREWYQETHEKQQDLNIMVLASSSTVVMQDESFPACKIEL
For test [5], the target named is T1, Microtubule-associated protein 1B. The test is described as follows: Binding affinity to human recombinant MAP1B-HBR (589 to 790) expressed in Escherichia coli BL21(DE3) assessed as inhibition of MAP1B-HBR-tubulin interaction at 1 to 20 uM by surface plasmon resonance analysis.
For test [6] the target is unchanged. The test is described as follows: Binding affinity to MAP1B in human MCF7 cells assessed as protein localization around perinuclear region at 1 uM after 24 hrs by DAPI staining-based immunofluorescence microscopy relative to control. In kind it is cell-based.
In test [7] the test system is L1210. The test is described as follows: Cytotoxicity against mouse L1210 cells. Format: functional, cell-based.
Test [8] has as its target T1, Microtubule-associated protein 1B. The test is described as follows: Binding affinity to human MAP1B (582 to 705) expressed in T7 phage after 1 hr by ELISA.
For test [9], the target named is Ribosomal L1 domain-containing protein 1 (Homo sapiens) (UniProt O76021). The test is described as follows: Binding affinity to human ribosomal L1 domain containing protein (309 to 432) expressed in T7 phage after 1 hr by ELISA.
In test [10] the target is T1, Microtubule-associated protein 1B. The test is described as follows: Binding affinity to human recombinant MAP1B-HBR (589 to 790) expressed in Escherichia coli BL21(DE3) by surface plasmon resonance analysis.
Test [11] in a line: Inhibition of PP2A (unknown origin) by spectrophotometry. Further details: species or system Homo sapiens.

Sequence of Microtubule-associated protein 1B (Rattus norvegicus) (P15205 whole entry): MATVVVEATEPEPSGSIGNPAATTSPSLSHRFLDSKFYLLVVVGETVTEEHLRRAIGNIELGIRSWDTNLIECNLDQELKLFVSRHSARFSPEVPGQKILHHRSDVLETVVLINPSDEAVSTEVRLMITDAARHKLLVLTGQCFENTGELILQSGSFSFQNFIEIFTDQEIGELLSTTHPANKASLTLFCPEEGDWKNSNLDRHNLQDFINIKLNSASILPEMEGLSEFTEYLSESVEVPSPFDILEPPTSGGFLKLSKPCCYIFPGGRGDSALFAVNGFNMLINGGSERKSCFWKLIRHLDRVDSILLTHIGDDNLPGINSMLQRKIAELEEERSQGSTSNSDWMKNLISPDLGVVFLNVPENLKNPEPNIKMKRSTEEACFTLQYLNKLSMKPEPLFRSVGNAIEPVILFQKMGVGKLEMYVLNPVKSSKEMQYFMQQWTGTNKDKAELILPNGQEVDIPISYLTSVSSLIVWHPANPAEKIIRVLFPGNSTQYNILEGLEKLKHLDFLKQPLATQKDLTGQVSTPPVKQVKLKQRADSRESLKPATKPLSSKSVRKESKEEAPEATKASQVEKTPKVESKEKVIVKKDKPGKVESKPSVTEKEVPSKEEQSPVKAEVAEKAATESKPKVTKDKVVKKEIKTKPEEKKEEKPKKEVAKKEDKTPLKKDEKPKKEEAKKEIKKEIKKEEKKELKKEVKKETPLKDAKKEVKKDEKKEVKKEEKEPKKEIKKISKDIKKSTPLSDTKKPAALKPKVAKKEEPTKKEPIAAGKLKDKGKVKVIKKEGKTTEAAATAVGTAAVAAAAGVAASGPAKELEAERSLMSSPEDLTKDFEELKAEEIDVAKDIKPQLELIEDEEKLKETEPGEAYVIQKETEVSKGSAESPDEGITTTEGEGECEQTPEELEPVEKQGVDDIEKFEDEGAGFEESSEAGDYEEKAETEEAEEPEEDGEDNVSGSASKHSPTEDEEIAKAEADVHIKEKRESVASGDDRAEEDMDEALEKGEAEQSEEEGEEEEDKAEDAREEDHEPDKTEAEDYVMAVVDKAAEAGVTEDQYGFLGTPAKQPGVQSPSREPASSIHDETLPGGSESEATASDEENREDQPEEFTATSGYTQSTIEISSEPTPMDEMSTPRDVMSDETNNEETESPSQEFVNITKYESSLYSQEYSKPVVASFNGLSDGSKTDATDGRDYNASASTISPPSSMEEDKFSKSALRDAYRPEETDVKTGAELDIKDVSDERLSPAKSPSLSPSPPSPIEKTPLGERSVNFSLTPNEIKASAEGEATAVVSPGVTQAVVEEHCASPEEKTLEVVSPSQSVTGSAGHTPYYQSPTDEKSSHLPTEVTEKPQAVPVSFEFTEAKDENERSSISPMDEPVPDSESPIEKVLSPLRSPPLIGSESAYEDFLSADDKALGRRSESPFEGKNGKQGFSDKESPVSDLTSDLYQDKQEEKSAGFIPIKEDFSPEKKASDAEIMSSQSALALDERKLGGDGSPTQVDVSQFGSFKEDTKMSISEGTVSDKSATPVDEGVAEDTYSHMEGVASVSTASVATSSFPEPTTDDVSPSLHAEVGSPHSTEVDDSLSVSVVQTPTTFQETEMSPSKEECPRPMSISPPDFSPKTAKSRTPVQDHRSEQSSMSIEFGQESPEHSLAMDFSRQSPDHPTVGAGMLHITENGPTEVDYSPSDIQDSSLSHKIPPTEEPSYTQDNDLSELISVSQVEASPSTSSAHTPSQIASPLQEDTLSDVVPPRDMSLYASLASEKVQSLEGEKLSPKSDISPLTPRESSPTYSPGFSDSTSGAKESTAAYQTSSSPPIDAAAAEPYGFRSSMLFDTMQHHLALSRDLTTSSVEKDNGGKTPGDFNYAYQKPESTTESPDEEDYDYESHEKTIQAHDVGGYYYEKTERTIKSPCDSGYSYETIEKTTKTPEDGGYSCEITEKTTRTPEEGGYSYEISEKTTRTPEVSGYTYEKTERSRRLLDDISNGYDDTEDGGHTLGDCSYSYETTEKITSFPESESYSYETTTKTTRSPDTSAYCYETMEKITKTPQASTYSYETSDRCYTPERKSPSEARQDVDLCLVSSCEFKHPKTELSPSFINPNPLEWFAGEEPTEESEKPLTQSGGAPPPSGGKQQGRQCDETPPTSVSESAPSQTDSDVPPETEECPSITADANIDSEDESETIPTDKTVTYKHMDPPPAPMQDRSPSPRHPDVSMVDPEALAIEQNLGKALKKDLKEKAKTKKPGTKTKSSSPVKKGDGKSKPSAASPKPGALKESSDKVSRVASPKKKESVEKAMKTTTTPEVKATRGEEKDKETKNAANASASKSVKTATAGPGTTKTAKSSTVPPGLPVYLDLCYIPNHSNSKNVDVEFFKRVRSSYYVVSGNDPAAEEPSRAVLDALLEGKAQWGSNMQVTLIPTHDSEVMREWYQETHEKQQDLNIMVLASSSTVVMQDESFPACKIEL

Consider `C[C@@](O)(/C=C/[C@@H]1OC(=O)C=C[C@@H]1O)[C@@H](C[C@@H](O)\C=C/C=C\C=C\CO)OP(=O)(O)O`, for which, in test [1], 12.5 µM (≈ 5.58 µg/mL) was the least that counted as inhibitory (MIC). Also, the outcome in test [2], in test [4], in test [5] and in [6] was Active. In addition, the concentration for half-maximal inhibition (IC50) in [3] turned out to be 9000 nM; in [7], 1800 nM.
On to `O=C(CCCC[C@@H]1SC[C@@H]2NC(=O)N[C@@H]21)NCCOCCn1cc(COCCOCCOc2ccc(COP(=O)(O)O)cc2)nn1`, for which the result in [8] was inactive. The outcome in test [9] was Active.
As to `C[C@@](O)(/C=C/[C@@H]1OC(=O)C=C[C@@H]1OCc1ccc(OCCOCCOCc2cn(CCOCCNC(=O)CCCC[C@@H]3SC[C@@H]4NC(=O)N[C@@H]43)nn2)cc1)[C@@H](C[C@@H](O)\C=C/C=C\C=C\CO)OP(=O)(O)O`, the result in test [8] and in [9] was Active. Also, the Kd in test [10] was 210 nM.
As for `C[C@@](O)(/C=C/[C@H]1CC=CC(=O)O1)[C@@H](C[C@@H](O)\C=C/C=C\C=C\CO)OP(=O)(O)O` [FOSTRIECIN], the MIC in test [1] was 50 µM (≈ 21.5 µg/mL). The IC50 in test [11] came to 1.5 nM; in test [3], 5100 nM.
